Common to all, as to assay type: biochemical
Assay [1] addresses T1, human IP6K2 (Homo sapiens, UniProt Q9UHH9).
T1 construct: Full-length human IP6K2, the kinase domain of human PPIP5K2; made in house
T1 sequence (Q9UHH9 1-426): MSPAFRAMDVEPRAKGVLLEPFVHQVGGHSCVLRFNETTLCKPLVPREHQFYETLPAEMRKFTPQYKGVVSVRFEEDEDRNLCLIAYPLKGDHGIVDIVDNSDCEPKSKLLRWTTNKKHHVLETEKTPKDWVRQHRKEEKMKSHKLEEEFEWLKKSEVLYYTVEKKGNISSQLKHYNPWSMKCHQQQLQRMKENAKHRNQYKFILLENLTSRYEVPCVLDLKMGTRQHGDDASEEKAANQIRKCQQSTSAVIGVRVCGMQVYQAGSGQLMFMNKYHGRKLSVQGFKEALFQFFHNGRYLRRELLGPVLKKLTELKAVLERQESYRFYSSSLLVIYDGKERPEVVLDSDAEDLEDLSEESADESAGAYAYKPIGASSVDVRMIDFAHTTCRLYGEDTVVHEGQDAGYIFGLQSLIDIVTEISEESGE
Description: HPLC assay of [3H]InsP6 phosphorylation by IP6K2. The conditions noted are these: [InsP6] = 500 nM; data not shown; read-out: IC50, inhibition of IP6K2 activity. Here is the method:
(§1) The initial InsP6 concentration was either 500 nM, 70 nM, or 40 nM. Various concentrations of 2,5-di-O-Bn-InsP4 were present as indicated. Radioactivity was assessed using an in-line Flo1 detector. The ADP-driven dephosphorylation of 100 nM 1,5-[PP]2-InsP4 by PPIP5K2^KD was usually determined by a luminescence-based assay of ATP accumulation ([Riley et al., 2012; Weaver et al., 2013]). The IC50 values were determined using GraphPad Prism v6.02 (n ≥ 3). In some experiments, 1,5-[PP]2-[^3H]InsP4 dephosphorylation by PPIP5K2^KD was assayed in 50 μl buffer containing 50 mM KCl, 20 mM HEPES pH 7.0, 7 mM MgSO4, 5 mM ADP, 1 mM EDTA. Reactions were then quenched, neutralized, and analyzed with HPLC using a Partisphere SAX column ([Weaver et al., 2013]); 1 ml fractions were collected for liquid scintillation spectrometry. The ATPase activity of PPIP5K2^KD (10–270 μg/ml) was assayed from Pi release following incubation at 37°C for 120–180 min in 20 μl reaction mixtures containing 20 mM Tris/HCl, pH 7.5, 10 mM ATP, 100 mM KCl, 0.1 mM EDTA, and 13 mM MgCl2.

Assay [2] deals with T2, human PPIP5K2^KD (Homo sapiens, UniProt O43314).
T2 construct: The kinase domain of human PPIP5K2 (PPIP5K2^KD; residues 1–366); made in house
T2 sequence (O43314 1-366): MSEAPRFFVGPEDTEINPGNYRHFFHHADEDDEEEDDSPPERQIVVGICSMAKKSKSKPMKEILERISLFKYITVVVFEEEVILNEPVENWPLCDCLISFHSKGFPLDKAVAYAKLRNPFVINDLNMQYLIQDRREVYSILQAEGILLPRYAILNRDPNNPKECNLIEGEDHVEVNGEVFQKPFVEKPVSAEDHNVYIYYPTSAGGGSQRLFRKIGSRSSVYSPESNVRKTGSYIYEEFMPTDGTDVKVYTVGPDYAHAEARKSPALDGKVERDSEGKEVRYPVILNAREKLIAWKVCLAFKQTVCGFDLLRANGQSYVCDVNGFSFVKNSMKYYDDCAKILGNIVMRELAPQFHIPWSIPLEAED
Kind of assay: HPLC assay of [3H]InsP6 phosphorylation (InsP6 kinase activity). As to the method:
as §1
S1, related to Figure 4. 2,5-Di-O-Bn-InsP4 (10) inhibits both ADP-driven [PP]2-[3H]InsP4 dephosphorylation and ATP-driven [3H]InsP6 phosphorylation by PPIP5K2 […]
E:Incubation buffers (see Methods) contained 500 nM [3H]InsP6 plus either 12.5 ng PPIP5K2 KD (panel D) or 30 ng PPIP5K2KD plus 1.5 μM 2,5-di-O-Bn-InsP4 (10) (panel E). Reactions rates in the absence and presence of 2,5-di-O-Bn-InsP4 (10) were calculated to be 52 and 21 nmol/mg protein/min, respectively. […]

The target in assay [3] is T3, PPIP5K2^KD (kinase domain of human PPIP5K2) (Homo sapiens, UniProt O43314).
T3 construct: The kinase domain of human PPIP5K2 (PPIP5K2^KD; residues 1–366); made in house
T3 sequence (O43314 1-366): T2 sequence (O43314 1-366)
Kind of assay: HPLC analysis of 1,5-[PP]2-[3H]InsP4 dephosphorylation. As to conditions: 2 μM analog, 200 nM 1,5-[PP]2-[3H]InsP4, 20 min; rate in absence 192. As to the method:
as §1
S1, related to Figure 4. 2,5-Di-O-Bn-InsP4 (10) inhibits both ADP-driven [PP]2-
[3H]InsP4 dephosphorylation and ATP-driven [3H]InsP6 phosphorylation by PPIP5K2 […]
Bn-InsP4 (10) (panel C). After 20 min reactions were quenched and analyzed by HPLC […]
O-Bn-InsP4 (10) were calculated to be 192 and 95 nmol/mg protein/min, respectively. […]

Molecules are shown by their SMILES. pIC50, pKi: −log10 of the molar value.

The term pIC50 denotes the IC50 on a negative log10 scale, so that one unit is a factor of ten. Usually pKi stands for −log10 of the Ki, conventionally taken in molar units. For `O=P(O)(O)O[C@@H]1[C@@H](OCc2ccccc2)[C@H](OP(=O)(O)O)[C@@H](OP(=O)(O)O)[C@@H](OCc2ccccc2)[C@H]1OP(=O)(O)O` [compound 10, 2,5-di-O-Bn-InsP4], the pIC50 in assay [1] is 4.20; in assay [2] ([InsP6] = 500 nM, read-out: IC50, inhibition of InsP6 phosphorylation), 6.00. Besides, the “reaction rate of [3H]InsP6 phosphorylation in the presence of analog” value in assay [2] (1.5 μM analog, 500 nM [3H]InsP6, rate in absence 52) turned out to be 21 nmol/mg protein/min. Moreover, the “nature of inhibition of InsP6 kinase activity” value in assay [2] (Dixon plot, Figure 4C) is reported as “competitive”. Further, the pKi in assay [2] (Figure 4C, read-out: Ki, inhibition of InsP6 kinase activity (Dixon plot)) is 6.62. The “reaction rate of [PP]2-[3H]InsP4 dephosphorylation in the presence of analog” value in assay [3] came to 95 nmol/mg protein/min.

(Values after paper PMC4085797, “Synthetic Inositol Phosphate Analogs Reveal that PPIP5K2 Has a Surface-Mounted Substrate Capture Site that Is a Target for Drug Discovery” (Chemistry & Biology, 2014).)
